Laboratory results published in PubChem BioAssay AID2047 (NMMLSC, 2009).
pKi: −log10 of the molar value.

What follows are molecules tested against GTPase HRas (Homo sapiens) (UniProt P01112) (assay: Ras wild-type GTP-binding inhibitors, SAR follow-up, biochemical, pyrazoline analogs, multiplex bead flow cytometry (AID 2047)). Settings: GST-Ras beads, Bodipy-FL-GTP binding, Ki calculated from EC50.
Sequence of GTPase HRas (Homo sapiens) (P01112 whole entry, looked up): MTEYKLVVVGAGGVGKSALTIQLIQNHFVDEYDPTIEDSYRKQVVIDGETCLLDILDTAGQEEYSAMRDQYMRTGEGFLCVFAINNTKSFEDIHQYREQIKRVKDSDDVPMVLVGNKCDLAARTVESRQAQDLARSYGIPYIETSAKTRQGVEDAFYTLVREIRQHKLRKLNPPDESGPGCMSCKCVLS

SMILES | pKi
NS(=O)(=O)c1ccc(N2N=C(c3ccc(Cl)cc3)CC2c2ccccc2)cc1 (stereo unspecified) | 8.00
CN(C)c1ccc(C2CC(c3ccccc3)=NN2c2ccccc2)cc1 (stereo unspecified) | 8.00
COc1ccc(C2=NN(c3ccccc3F)C(c3ccc(F)cc3)C2)cc1 (stereo unspecified) | 5.68

More lines, now with the values ahead:

pKi | SMILES
8.00 | COc1ccc(C2CC(c3ccc(Cl)cc3)=NN2c2ccccc2)cc1OC (stereo unspecified)
6.80 | COc1ccc(C2CC(c3ccccc3)=NN2c2ccc(Cl)c(C(=O)O)c2)cc1 (stereo unspecified)
5.56 | COc1ccc(C2=NN(c3ccccc3)C(c3ccccc3C(F)(F)F)C2)cc1 (stereo unspecified)
